Results as given in patent US9511134B2, “Inducing immune responses to influenza virus using polypeptide and nucleic acid compositions” (priority 2006, dated 2016).
Where “and” joins values, the source holds several entries; their conditions need not be identical. Equal values may be shown once. Read-outs that look alike come from different tables or passages of the source.

Legend:
DRB1*0701 = DRB1*0701 (Homo sapiens, UniProt P01903+P01911, A100R/A102G/A103Q/D57E/D86V/E43K/F76Y/K127E/L162R/M171V/P40G/Q125H/Q99D/R33Q/R42Y/R54Q/S133A/S66F/T210M/V115G/Y107V/Y59L/Y89S); assay: biochemical; assay type: binding
DRB1*1501 = target: T1, DRB1*1501 (Homo sapiens, UniProt P01903+P01911); assay: biochemical; assay type: binding; settings: read-out: IC50 nM to purified HLA DRB1*1501
T1 construct: made in house; host or cells: EBV-transformed homozygous human B cell lines, transfected fibroblasts or single-allele 721.221 transfectants

DRB1*0405 = DRB1*0405 (Homo sapiens, UniProt P01903+P01911, A100R/A169T/D86S/F76Y/I96L/K127E/L162R/M171V/N62H/P40V/Q125Y/R42H/S133A/S149N/S66Y/V115G/V209L/W38E); assay: biochemical; assay type: binding; settings: read-out: IC50 nM to purified HLA DRB1*0405
DRB1*0404 = DRB1*0404 (Homo sapiens, UniProt P01903+P01911, A100R/A169T/F76Y/I96L/K127E/L162R/M171V/N62H/P40V/Q125Y/R42H/S133A/S149N/S66Y/V209L/W38E); assay: biochemical; assay type: binding
DRB1*0401 = target: T2, DRB1*0401 (Homo sapiens, UniProt P01903+P01911, A100K/A169T/F76Y/I96L/K127E/L162R/M171V/N62H/P40V/Q125Y/R42H/S133A/S149N/S66Y/V115G/V209L/W38E); assay: biochemical; assay type: binding; settings: read-out: IC50 nM to purified HLA DRB1*0401
T2 construct: made in house; host or cells: EBV-transformed homozygous human B cell lines, transfected fibroblasts or single-allele 721.221 transfectants

DRB1*0101 = target: T3, DRB1*0101 (Homo sapiens, UniProt P01903+P01911, A100R/D57E/F55L/F60I/F76Y/I96L/L162R/M171V/P40L/Q125E/R42F/V115G/Y59C); assay: biochemical; assay type: binding
T3 construct: made in house; host or cells: EBV-transformed homozygous human B cell lines, transfected fibroblasts or single-allele 721.221 transfectants

DRB1*1101 = DRB1*1101 (Homo sapiens, UniProt P01903+P01911, A100R/A169T/A87E/I96F/K41T/L162R/M171V/P40S/Q125H/Q178H/Q39Y/Q99D/R42S/S66Y/T262R/V115G/W38E); assay: biochemical; assay type: binding; settings: read-out: IC50 nM to purified HLA DRB1*1101
DRB4*0101 = target: T4, DRB4*0101 (Homo sapiens, UniProt P01903+P13762, G164S); assay: biochemical; assay type: binding; settings: IC50 nM to purified HLA DRB4*0101
T4 construct: made in house; host or cells: EBV-transformed homozygous human B cell lines, transfected fibroblasts or single-allele 721.221 transfectants

DRB5*0101 = target: T5, DRB5*0101 (Homo sapiens, UniProt P01903+Q30154); assay: biochemical; assay type: binding
T5 construct: made in house; host or cells: EBV-transformed homozygous human B cell lines, transfected fibroblasts or single-allele 721.221 transfectants

DRB1*0802 = DRB1*0802 (Homo sapiens, UniProt P01903+P01911, A100R/A103L/A169T/F76Y/H45Y/I96F/K41T/L162R/M171V/P40S/Q125H/Q178H/Q39Y/Q99D/R218S/R42G/S66Y/V115G/W38E); assay: biochemical; assay type: binding
DRB1*1302 = DRB1*1302 (Homo sapiens, UniProt P01903+P01911, A100E/A169T/K41T/L162R/M171V/P40S/Q125H/Q178H/Q39Y/Q99D/R42S/S66N/T262R/V115G/W38E/Y61H); assay: biochemical; assay type: binding; settings: read-out: IC50 nM to purified HLA DRB1*1302
CD4+ PBMC = assay type: cell-based, human; settings: IFNγ ELISPOT, PBMC rested five days, CD8-depleted
DRB1*0301 = target: T6, DRB1*0301 (Homo sapiens, UniProt P01903+P01911, A100K/A102G/A103R/A169T/F55Y/I96L/K41T/L162R/M171V/P40S/Q125H/Q178H/Q39Y/R42S/S66N/T106N/T262R/W38E/Y61H); assay: biochemical; assay type: binding
T6 construct: made in house; host or cells: EBV-transformed homozygous human B cell lines, transfected fibroblasts or single-allele 721.221 transfectants

[1] = IC50 nM to purified HLA DRB1*0101
[2] = IC50 nM to purified HLA DRB1*0101, Table 4
[3] = IC50 nM to purified HLA DRB1*0404

Chain of DRB1*1302 (P01903 26-254 limits assumed, other chains not shown): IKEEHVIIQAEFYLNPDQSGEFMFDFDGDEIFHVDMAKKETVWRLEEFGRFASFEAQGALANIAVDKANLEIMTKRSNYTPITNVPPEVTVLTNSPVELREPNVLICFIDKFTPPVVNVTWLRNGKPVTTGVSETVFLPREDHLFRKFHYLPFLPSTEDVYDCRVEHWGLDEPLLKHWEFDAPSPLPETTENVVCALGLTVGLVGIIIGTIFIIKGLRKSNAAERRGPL
T6 sequence (P01903 26-254, other chains not shown): as the sequence (P01903 26-254 limits assumed, other chains not shown) above
Chain of DRB1*1101 (P01903 26-254 limits assumed, other chains not shown): as above

SMILES	IC50 (DRB1*1501)	IC50 (DRB1*0405) [nM]	IC50 (DRB1*0401)	IC50 (DRB1*1101) [nM]	IC50 (DRB4*0101) [nM]	IC50 (DRB5*0101) [nM]	IC50 (DRB1*0802) [nM]	IC50 (DRB1*0101; [1])	IC50 (DRB1*1302) [nM]	IC50 (DRB1*0701) [nM]	IC50 (DRB1*0404; [3]) [nM]	IC50 (DRB1*0301) [nM]	further results
CC[C@H](C)[C@H](NC(=O)CNC(=O)[C@@H](NC(=O)[C@@H](NC(=O)[C@H](CO)NC(=O)[C@H](C)NC(=O)[C@H](C)NC(=O)[C@@H](NC(=O)[C@@H](NC(=O)[C@H](CC(C)C)NC(=O)[C@@H]1CCCN1C(=O)[C@@H](N)CC(=O)O)C(C)C)C(C)C)[C@@H](C)CC)[C@@H](C)CC)C(=O)N[C@@H](CC(C)C)C(=O)N[C@@H](Cc1c[nH]cn1)C(=O)N[C@@H](CC(C)C)C(=O)O [Flu.M2.27]	2200 nM	630	92 nM	1800									IC50 (DRB1*0701; read-out: IC50 nM to purified HLA DRB1*0701): 1300 nM; IC50 (DRB1*0404; read-out: IC50 nM to purified HLA DRB1*0404): 23 nM; IC50 (DRB1*0101; read-out: IC50 nM to purified HLA DRB1*0101): 78 nM
CC[C@H](C)[C@H](N)C(=O)NCC(=O)N[C@@H](CCCNC(=N)N)C(=O)N[C@@H](Cc1ccccc1)C(=O)N[C@@H](Cc1ccc(O)cc1)C(=O)N[C@H](C(=O)N[C@@H](CCC(N)=O)C(=O)N[C@@H](CCSC)C(=O)N[C@@H](CS)C(=O)N[C@H](C(=O)N[C@@H](CCC(=O)O)C(=O)N[C@@H](CC(C)C)C(=O)N[C@@H](CCCCN)C(=O)N[C@@H](CC(C)C)C(=O)N[C@@H](CO)C(=O)O)[C@@H](C)O)[C@@H](C)CC [Flu.NP.39]				880	990	78	130	64 nM and 43 nM	640				IC50 (DRB1*0101; [2]): 64 nM; Human influenza epitope-specific immune response, donor 3501 (CD4+ PBMC): Positive (Donors were considered positive for a peptide if the number of spots was over 3 times background as determined by responses to irrelevant peptides (non influenza))
CC[C@H](C)[C@H](NC(=O)[C@H](CCC(=O)O)NC(=O)CNC(=O)[C@@H](N)C(C)C)C(=O)N[C@@H](CO)C(=O)N1CCC[C@H]1C(=O)N[C@@H](CC(C)C)C(=O)N1CCC[C@H]1C(=O)N[C@@H](CO)C(=O)N[C@@H](CC(C)C)C(=O)N1CCC[C@H]1C(=O)NCC(=O)N[C@@H](Cc1c[nH]cn1)C(=O)N[C@H](C(=O)N[C@@H](CC(=O)O)C(=O)O)[C@@H](C)O [Flu.NS1.160]	38 nM and 28 nM		31 nM and 16 nM	90				14 nM and 12 nM	> 10000	> 10000	8.5	> 10000	IC50 (DRB1*1501; Table 4): 38 nM; IC50 (DRB1*0401; Table 4): 31 nM; IC50 (DRB1*0101; [2]): 14 nM
CC[C@H](C)[C@H](NC(=O)CNC(=O)[C@@H]1CCCN1C(=O)[C@H](Cc1c[nH]cn1)NC(=O)[C@H](CO)NC(=O)[C@H](CCC(=O)O)NC(=O)[C@H](CCC(=O)O)NC(=O)[C@H](CC(C)C)NC(=O)[C@H](Cc1ccccc1)NC(=O)[C@H](C)NC(=O)[C@H](CCSC)NC(=O)[C@H](C)N)C(=O)N[C@@H](Cc1ccccc1)C(=O)N[C@@H](CCC(=O)O)C(=O)N[C@@H](CC(N)=O)C(=O)O [Flu.PB1.94]										84		400	
CC[C@H](C)[C@H](NC(=O)[C@@H](NC(=O)[C@H](CCCNC(=N)N)NC(=O)[C@H](CCC(N)=O)NC(=O)[C@@H](NC(=O)[C@@H](NC(=O)[C@H](CCSC)NC(=O)[C@H](CCCCN)NC(=O)[C@H](CCCCN)NC(=O)[C@@H](N)[C@@H](C)O)C(C)C)[C@@H](C)O)[C@@H](C)O)C(=O)NCC(=O)N[C@@H](CCCCN)C(=O)N[C@@H](CCCCN)C(=O)N[C@@H](CCCCN)C(=O)N[C@@H](CCC(N)=O)C(=O)O [Flu.PB1.199]	9710 nM		71 nM	449	57	4.1	55		6120	14100	62		
CSCC[C@H](NC(=O)[C@H](CO)NC(=O)[C@H](CCCCN)NC(=O)[C@H](C)N)C(=O)N[C@@H](CCC(=O)O)C(=O)N[C@@H](Cc1ccc(O)cc1)C(=O)N[C@@H](CC(=O)O)C(=O)N[C@@H](C)C(=O)N[C@H](C(=O)N[C@@H](C)C(=O)N[C@H](C(=O)N[C@H](C(=O)N[C@@H](Cc1c[nH]cn1)C(=O)N[C@@H](CO)C(=O)N[C@@H](Cc1c[nH]c2ccccc12)C(=O)O)[C@@H](C)O)[C@@H](C)O)C(C)C [Flu.PB1.655]	1990 nM	626	53 nM	6620	6340	3530		202 nM	2180	292	646	909	
CC[C@H](C)[C@H](NC(=O)CNC(=O)[C@@H](NC(=O)[C@@H]1CCCN1C(=O)[C@H](CCCNC(=N)N)NC(=O)[C@@H](N)CCCNC(=N)N)C(C)C)C(=O)N[C@@H](CO)C(=O)N[C@@H](CO)C(=O)N[C@@H](CCSC)C(=O)N[C@H](C(=O)N[C@@H](CCC(=O)O)C(=O)N[C@@H](C)C(=O)N[C@@H](CCSC)C(=O)N[C@H](C(=O)N[C@@H](CO)C(=O)O)C(C)C)C(C)C [Flu.PB1.709]	240 nM									1800			
CSCC[C@H](NC(=O)[C@@H](NC(=O)[C@H](CCCNC(=N)N)NC(=O)[C@@H](N)CC(=O)O)C(C)C)C(=O)N[C@H](C(=O)N[C@@H](CO)C(=O)N1CCC[C@H]1C(=O)N[C@@H](CC(C)C)C(=O)N[C@@H](C)C(=O)N[C@H](C(=O)N[C@H](C(=O)N[C@@H](Cc1c[nH]c2ccccc12)C(=O)N[C@@H](Cc1c[nH]c2ccccc12)C(=O)N[C@@H](CC(N)=O)C(=O)N[C@@H](CCCNC(=N)N)C(=O)O)[C@@H](C)O)C(C)C)C(C)C [Flu.PB2.90]		16000					3550	93 nM					
CC[C@H](C)[C@H](NC(=O)[C@H](CC(C)C)NC(=O)[C@H](Cc1ccccc1)NC(=O)CNC(=O)[C@H](CCCNC(=N)N)NC(=O)[C@H](CC(C)C)NC(=O)[C@@H](NC(=O)[C@H](C)NC(=O)[C@H](CO)NC(=O)[C@@H](N)CCC(=O)O)C(C)C)C(=O)N[C@@H](CC(C)C)C(=O)NCC(=O)N[C@@H](CCCCN)C(=O)N[C@@H](CCC(=O)O)C(=O)N[C@@H](CC(=O)O)C(=O)O [Flu.PB2.690]	39 nM	7100			1280	303	803	8.4 nM		2470	110		
CC[C@H](C)[C@H](NC(=O)[C@H](CC(C)C)NC(=O)[C@@H](NC(=O)[C@@H](N)CC(N)=O)C(C)C)C(=O)NCC(=O)N[C@@H](CCC(N)=O)C(=O)NCC(=O)N[C@@H](CC(=O)O)C(=O)N[C@H](C(=O)N[C@H](C(=O)N[C@@H](CC(C)C)C(=O)N[C@H](C(=O)N[C@@H](CCSC)C(=O)N[C@@H](CCCCN)C(=O)N[C@@H](CCCNC(=N)N)C(=O)O)C(C)C)C(C)C)C(C)C [Flu.PB2.726]						4200	1080						
